Source: ChEMBL document CHEMBL5614419, “Discovery of novel BCL6-Targeting PROTACs with effective antitumor activities against DLBCL in vitro and in vivo” (Eur J Med Chem, 2024)
Active and inactive are the calls of the source. The calls are words filed in the database; no cut-off is given here.

Experiments:
[1] = target: T1, Protein cereblon/B-cell lymphoma 6 protein (Homo sapiens, UniProt Q96SW2+P41182); assay: PROTAC activity at CRBN/BCL6 in BCL6-dependent human SU-DHL-4 cells assessed as induction of BCL6 degradation by measuring degradation rate at 1 uM incubated for 48 hrs by Western blot analysis relative to control; type: cell-based
SUD4 [2] = assay: Antiproliferative activity against BCL6-dependent human SU-DHL-4 cells assessed as inhibition of cell growth at 10 uM measured after 6 days by MTT assay relative to control; type: functional; details: SU-DHL-4, 144 h, time 6 day
[3] = Cmax in male Sprague-Dawley rat at 10 mg/kg, ip measured upto 24 hrs by LC-MS/MS analysis; type: ADME, organism-based; details: in vivo
[4] = Half life in male Sprague-Dawley rat at 10 mg/kg, ip measured upto 24 hrs by LC-MS/MS analysis; type: ADME, organism-based; details: in vivo
[5] = AUC (0 to t) in male Sprague-Dawley rat at 20 mg/kg, po measured upto 24 hrs by LC-MS/MS analysis; type: ADME, organism-based; details: in vivo
[6] = AUC (0 to infinity) in male Sprague-Dawley rat at 10 mg/kg, ip measured upto 24 hrs by LC-MS/MS analysis; type: ADME, organism-based; details: in vivo
[7] = target: T1, Protein cereblon/B-cell lymphoma 6 protein; assay: PROTAC activity at CRBN/BCL6 in human SU-DHL-4 cells assessed as induction of BCL6 degradation incubated for 48 hrs by Western blot analysis; type: cell-based
[8] = target: T1, Protein cereblon/B-cell lymphoma 6 protein; assay: PROTAC activity at CRBN/BCL6 in human DOHH-2 cells assessed as induction of BCL6 degradation by measuring maximal efficacy incubated for 48 hrs by Western blot analysis relative to control; type: cell-based
[9] = target: T1, Protein cereblon/B-cell lymphoma 6 protein; assay: PROTAC activity at CRBN/BCL6 in human SU-DHL-4 cells assessed as reduction in half life BCL6 at 1 uM preincubated with compound for 24 hrs followed by CHX addition and measured after 4 hrs by Western blot analysis; type: cell-based; details: time 28.0 hrs
SUD4 [10] = assay: Upregulation of p21 protein level in human SU-DHL-4 cells at 5 uM by Western blot analysis; type: functional, cell-based; details: time 12-72 hrs, TDE = time-dependent effect
SUD4 [11] = assay: Induction of cell cycle arrest in human SU-DHL-4 cells assessed as increase in G1 phase cell population at 10 uM measured after 72 hrs by flow cytometry analysis (reference value: 61.4%); type: functional
SUD4 [12] = assay: Induction of cell cycle arrest in human SU-DHL-4 cells assessed as increase in G1 phase cell population at 1 uM measured after 72 hrs by flow cytometry analysis (reference value: 61.4%); type: functional
[13] = Antitumor activity against human SU-DHL-4 cells xenografted in female nude nu/nu mouse assessed as tumor growth inhibition at 40 mg/kg, ip measured after 21 days by microcaliper based analysis relative to control; type: functional, SUD4; details: SU-DHL-4, 504 h, time 21 day, read-out: TGI
[14] = target: T1, Protein cereblon/B-cell lymphoma 6 protein; assay: In vivo PROTAC activity at CRBN/BCL6 in female nude nu/nu mouse model xenografted with human SU-DHL-4 cells assessed as increase in p27 protein level in tumor at 40 mg/kg, ip measured after 5 hrs of last dose by Western blot analysis; type: functional, organism-based; details: SUD4
[15] = Resistance index, ratio of IC50 for human DOHH2/Ib cells to IC50 for DOHH2 cells; type: functional
[16] = target: T1, Protein cereblon/B-cell lymphoma 6 protein; assay: PROTAC activity at CRBN/BCL6 in human Ibrutinib resistant DOHH2 cells assessed as induction of BCL6 degradation at 0.1 to 10 uM incubated for 48 hrs by Western blot analysis; type: cell-based; details: dose 0.1-10 µM
DOHH-2 [17] = assay: Induction of cell cycle arrest in human DOHH-2 cells assessed as G1 phase arrest at 500 nM in presence of Ibrutinib incubated for 72 hrs by flow cytometry; type: functional, cell-based
DOHH-2 [18] = assay: Synergistic antiproliferative activity against human DOHH-2 cells assessed as combination index measured after 6 days in presence of Ibrutinib by MTT assay; type: functional; details: time 6 day
SUD4 [19] = assay: Upregulation of CDKN1B mRNA level in human SU-DHL-4 cells at 10 uM incubated for 48 hrs by RT-qPCR analysis; type: functional, cell-based
SUD4 [20] = assay: Upregulation of p27 protein level in human SU-DHL-4 cells at 5 uM by Western blot analysis; type: functional, cell-based; details: time 12-72 hrs, TDE = time-dependent effect
SUD4 [21] = assay: Induction of apoptosis in human SU-DHL-4 cells at 10 uM; type: functional, cell-based
[22] = tested on: Ibrutinib resistant DOHH2 cell; assay: Upregulation of p21 protein level in human Ibrutinib resistant DOHH2 cells at 0.1 to 10 uM incubated for 48 hrs by Western blot analysis; type: functional, cell-based; details: dose 0.1-10 µM

T1 sequence (Q96SW2 whole entry, looked up, other chains not shown): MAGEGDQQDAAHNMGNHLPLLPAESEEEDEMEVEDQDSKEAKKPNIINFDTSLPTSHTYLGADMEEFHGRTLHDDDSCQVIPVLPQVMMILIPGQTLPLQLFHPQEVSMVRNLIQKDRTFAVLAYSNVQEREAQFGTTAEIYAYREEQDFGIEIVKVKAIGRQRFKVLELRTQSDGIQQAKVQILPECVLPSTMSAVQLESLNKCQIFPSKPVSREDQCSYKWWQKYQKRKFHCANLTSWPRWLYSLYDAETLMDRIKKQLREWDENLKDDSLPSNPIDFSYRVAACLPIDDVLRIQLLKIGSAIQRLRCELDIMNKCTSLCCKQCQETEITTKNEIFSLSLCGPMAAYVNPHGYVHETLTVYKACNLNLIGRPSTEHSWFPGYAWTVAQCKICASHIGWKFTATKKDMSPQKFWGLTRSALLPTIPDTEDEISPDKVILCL

COc1cc(Nc2nc(N3CCN(CCOCCNc4cccc5c4C(=O)N(C4CCC(=O)NC4=O)C5=O)CC3)ncc2F)ccc1NC(=O)c1ccc(C2=CCCC2)s1 (stereo not drawn)
Activity [1]: 81.8%
inhibition at 10 µM (SUD4 [2]): 92.6%
Cmax [3]: 3820 ng/mL
half-life [4]: 2.59 h
AUC(0-t) at 24 h [5]: 2290 ng·h/mL
AUC(0-inf) [6]: 33900 ng·h/mL
Activity [7]: Dose-Dependent Effect
DC50 [7]: 676 nM
Emax [8]: 93.7%
Activity [9]: Active
Activity (SUD4 [10]): Tde
Activity (SUD4 [11]): 93.3%
Activity (SUD4 [12]): 86.7%
inhibition in vivo at 40 mg/kg [13]: 71.8%
Activity [14]: Active
Ratio IC50 [15]: 31.7
Activity [16]: Active
Activity (DOHH-2 [17]): Active
CI (DOHH-2 [18]): 0.2
Activity (SUD4 [19]): Active
Activity (SUD4 [20]): Tde
Activity (SUD4 [21]): inactive
Activity [22]: Active
